Data: patent publication US20250161285A1, “BACTERIAL BIOFILM INHIBITORS” (THE RESEARCH INSTITUTE AT NATIONWIDE CHILDREN'S HOSPITAL, priority 2022, published 2025)
Read-outs that look alike come from different tables or passages of the source.

Columns and labels:
[1] = test system: S. Typhimurium ATCC 14028; assay: Murine model of chronic Salmonella gallbladder carriage, combination with ciprofloxacin; assay type: in vivo, 129X1/SvJ NRAMP+/+ mice; details: for reduction in bacterial burden in the gallbladder: 5 mg/kg/day compound + 1 mg/kg/day cipro I.P., 15 dpi
Method: FIGS. 5A-5F provide graphs showing Enumeration of Salmonella in the gallbladder, liver, and spleen of infected mice at 15 dpi. […] Dotted lines represent the limit of detection where applicable; significant differences among the bacterial burden of treatment groups were determined via one-way ANOVA with the Tukey correction for multiple comparisons; ns non-significant, * p<0.05, ** p<0.01, *** p<0.001, **** p<0.0001.
Murine model of chronic Salmonella gallbladder carriage and evaluation of compound therapeutic efficacy in combination with ciprofloxacin. A total of 46 adult 129X1/SvJ NRAMP^+/+ mice (The Jackson Laboratory, Bar Harbour, ME) were used in this study. […] Mice were randomly assigned to treatment groups in two separate experiments. […] Treatments were administered daily via I.P. injection from days 5-15 post-infection. On day 15 post-infection, mice were euthanized and gallbladders, livers, and spleens were removed and homogenized in a volume of 1 mL sterile PBS using a TissueLyser LT bead mill (Qiagen, Valencia, CA). Tissue homogenates were serially diluted in PBS, plated onto LB agar, and incubated at 37° C. for 16h in order to quantify bacterial burden via CFU enumeration.

[2] = test system: S. Typhimurium ATCC 14028 (JSG210) biofilms; assay: Biofilm inhibition assay (crystal violet staining); assay type: cell-based, Salmonella enterica serovar Typhimurium; details: for IC50: inhibition of S. Typhimurium biofilm formation, compound present 24 h, crystal violet OD570, mean ± standard deviation
Method: Inhibition of biofilm formation is assessed by growing bacteria in a 96-well plate in the absence (control) or presence of test compounds. After 24 hours, the wells are washed to remove planktonic bacteria, and the remaining surface attached bacteria (biofilm) are stained with crystal violet (CV). The wells are then washed again to remove excess CV, and the remaining CV is solubilized with a solution of acetic acid and then quantified by spectrophotometry at 570 nm. A dose response curve is then constructed from which an IC50 value is determined.
(§1) Salmonella biofilm growth and crystal violet staining. […] For biofilm assays, individual bacterial colonies were picked and used to inoculate LB broth for overnight liquid cultures, which were grown at 37° C. with aeration using a rotating drum. […] Biofilm plates were then submerged in dH2O to wash away any remaining non-adherent bacteria and heat fixed (1h, 60° C.). Biofilms were then stained with a 33% crystal violet solution (6 mL PBS, 3.3 mL crystal violet, 333 μL methanol, 333 μL isopropanol) for 5 min. and washed twice by submerging in dH2O before releasing the bound dye with 33% glacial acetic acid. Biofilm growth was then quantified by measuring the optical density of the solubilized dye at 570 nm using a spectrophotometer (Molecular Devices, SpectraMax M5).
(§2) Biofilm Inhibition and Dispersion Assays and IC50/EC50 Determination. […] Biofilms were then grown as described above for a total of 24 h prior to CV staining. […] Biofilms were then incubated for an additional 24 h in the presence of compounds prior to CV staining. IC50/EC50 values were calculated by plotting normalized compound activity (percent biofilm formed and percent remaining, respectively) as a function of log10 compound concentration and fitting a dose response curve (log[inhibitor] vs. normalized response, variable slope).

[3] = test system: S. Typhimurium ATCC 14028 (JSG210) biofilms; assay: Biofilm dispersion assay on pre-formed biofilms (crystal violet staining); assay type: cell-based, Salmonella enterica serovar Typhimurium; details: 50% dispersion of biofilms established 24 h, then 24 h with compound, crystal violet OD570; mean ± standard deviation
Method: as §1, §2

[4] = test system: S. Typhimurium ATCC 14028; details: cited from earlier work
[5] = 5 mg/kg/day 7d + 4 mg/kg/day cipro, I.P., days 5-15
[6] = 2 mg/kg/day cipro alone, I.P., days 5-15 post-infection

Row | SMILES | reduction in bacterial burden in the gallbladder ([1]; days 5-15 post-infection) | IC50 [2] [µM] | EC50 [3] [µM] | further results
1 | CN(Cc1ccsc1)CC1CCN(CCc2ccccc2F)CC1 [Compound 1] | ~2 log-fold | 5.7 | 829 | reduction in the bacterial burden in the gallbladder ([4]; compound 1 10 mg/kg/day + ciprofloxacin 1.0 mg/kg/day (Sandala et al., 2020)): 3-4.5 log; reduction of bacterial burden in the gallbladder ([4]; compound 1 at 10 mg/kg/day, previous experiments (Sandala et al., 2020)): several logs
2 | CN(Cc1ccsc1)CC1CCN(CCc2cccc(Cl)c2Cl)CC1 [Compound 7b] | ~1.5 log-fold | – | – | –
3 | CN(Cc1ccsc1)CC1CCN(CCc2ccc(Br)c(Br)c2)CC1 [Compound 7d] | 4.5-5 log-fold | – | – | CFUs recovered in all organs (gallbladder, liver, spleen) [1, 5]: neared the limit of detection; gallbladder bacteria versus 4 mg/kg/day cipro alone [1, 5]: additional significant reduction; reduction of bacterial burden in the gallbladder ([1]; compound with ciprofloxacin): 4.5-5 logs
4 | CN(Cc1ccsc1)CC1CCN(Cc2ccc(I)cc2)CC1 [Compound 8f] | – | 5.7 ± 2.9 | 77 ± 3 | –
5 | Cc1ccccc1CCN1CCC(CN(C)Cc2ccsc2)CC1 [Compound 8g] | – | 6.3 ± 2.3 | 247 ± 11 | –
6 | CC(C)c1ccc(CCN2CCC(CN(C)Cc3ccsc3)CC2)cc1 [Compound 8h] | – | 2.3 | 123 ± 7 | –
7 | CN(Cc1ccsc1)CC1CCN(CCc2cccc(-c3ccccc3)c2)CC1 [Compound 8i] | – | 1.8 | 31 ± 4 | fold improvement of IC50 versus comparator ([2]; 6a vs 4c, 6b vs 4d, 6g vs 4c and 4d, 8i vs 8b): two-fold
8 | CN(Cc1ccsc1)CC1CCN(CCc2ccc(-c3ccccc3)cc2)CC1 [Compound 8j] | 3.5-4 log-fold | – | – | –
9 | CN(Cc1ccsc1)CC1CCN(CCc2cccc3ccccc23)CC1 [Compound 8k] | – | 2.5 | 28 ± 5 | –
10 | O=C(O)c1cn(C2CC2)c2cc(N3CCNCC3)c(F)cc2c1=O [cipro, ciprofloxacin, reference compound] | – | – | – | bacteria recovered from the liver and spleen [1, 6]: reduce the number of bacteria recovered; effect on bacterial burden within the gallbladder [1, 6]: no statistically significant effect; reduction of bacterial gallbladder burden ([1]; 4 mg/kg/day cipro alone, I.P., days 5-15 post-infection): 3-4 logs
